Measured values as given in US20060013899A1, “Topical compositions for treatment of skin disorders and methods of use thereof” (priority 2004, published 2006).

Assays:
interleukin-8 = settings: cited from earlier work
[1] = test system: mild to moderate eczema lesions
From the text: Anecdotally, zinc pyrithione appears to produce a transient histamine blocking or inhibiting mechanism.

[2] = test system: eczema, psoriasis and other forms of immuno-dysfunctional dermatitis; test: control of eczema, psoriasis and other immuno-dysfunctional dermatitis by the individual ingredients and their combination; assay type: in vivo, human
From the text: The present invention includes zinc pyrithione, which has been used in other preparations for various types of skin conditions. Zinc pyrithione may be used to control mild to possibly moderate eczema and psoriasis.
The explanations above provide some validation of how these three ingredients may provide limited benefits, but cannot explain the dynamics of their relationship in the control of pro-inflammatory cytokines and the speed of the repair and healing process.

[3] = only known side effect; cited from earlier work
[4] = 24 patients, 0.25% zinc pyrithione spray; cited from earlier work
[5] = suspended in a water solution, topical, mild to moderate eczema lesions

Row | Substance | tumor necrosis factor-alpha mediated interleukin-8 expression (interleukin-8) | erythema ([1]; during the period of itch relief) | duration of itch relief [1, 5] | time to relief of the itching sensation [1, 5] | control of disease ([2]; ingredient used individually or the three combined) | control of disease in the moderate to severe ranges ([2]; zinc pyrithione by itself) | normal allergic reaction, share of the population [3] | effect on the efficacy of clobetasol propionate [4]
1 | epigallocatechin-3-gallate | inhibits tumor necrosis factor-alpha mediated interleukin-8 expression in a dose related manner |  |  |  |  |  |  | 
2 | zinc pyrithione |  | erythema was reduced | up to six | fifteen to thirty | some degree of control benefits for mild and possibly moderate eczema, psoriasis | fails to control these diseases in the moderate to severe ranges | less than one | did not appear to enhance the efficacy of clobetasol propionate
